Measurements taken from patent US12209087B2, “AKT1 modulators” (Alterome Therapeutics, Inc., priority 2022, dated 2025).

molecular target: T1, full length AKT E17K (Homo sapiens, UniProt P31749, E17K); experiment: NanoBRET Target Engagement (TE) Assay; assay type: cell-based; conditions: competitive displacement of tracer in cells, read-out: AKT1 E17K IC50
T1 construct: host or cells: HEK-293 (ATCC CRL-1573)
Outline: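 Compound and tracer incubated 2 h before luminescence at donor 450 nm and acceptor 600 nm, with extracellular signal inhibited. EC50 by sigmoidal variable-slope regression.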

T1 sequence (P31749 whole entry E17K): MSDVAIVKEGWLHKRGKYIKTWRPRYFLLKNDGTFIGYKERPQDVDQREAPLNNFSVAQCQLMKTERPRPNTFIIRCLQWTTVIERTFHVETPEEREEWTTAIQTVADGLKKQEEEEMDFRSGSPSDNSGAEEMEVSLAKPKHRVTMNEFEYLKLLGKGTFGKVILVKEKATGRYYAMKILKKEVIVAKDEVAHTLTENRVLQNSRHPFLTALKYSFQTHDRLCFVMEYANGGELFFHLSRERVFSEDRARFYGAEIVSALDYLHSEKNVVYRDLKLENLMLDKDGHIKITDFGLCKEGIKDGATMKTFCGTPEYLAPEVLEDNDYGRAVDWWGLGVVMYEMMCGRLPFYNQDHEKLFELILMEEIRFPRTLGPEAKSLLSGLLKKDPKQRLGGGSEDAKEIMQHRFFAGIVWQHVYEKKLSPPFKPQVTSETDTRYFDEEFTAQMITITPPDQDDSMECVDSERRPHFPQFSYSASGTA

`N#Cc1nccc(NC2CCN(Cc3ccc(-n4c(-c5cccnc5N)nc5ccc(-c6ccns6)nc54)cc3)CC2)n1` [Example 483, 4-((1-(4-(2-(2-Aminopyridin-3-yl)-5-(isothiazol-5-yl)-3H-imidazo[4,5-b]pyridin-3-yl)benzyl)piperidin-4-yl)amino)pyrimidine-2-carbonitrile] and `Cc1cc(-c2ccc3nc(-c4cccnc4N)n(-c4ccc(CN5CCC(Nc6ccnc(C#N)n6)CC5)cc4)c3n2)ccn1` [Example 477, 4-((1-(4-(2-(2-Aminopyridin-3-yl)-5-(2-methylpyridin-4-yl)-3H-imidazo[4,5-b]pyridin-3-yl)benzyl)piperidin-4-yl)amino)pyrimidine-2-carbonitrile] cannot be ordered by IC50: under 0.015 µM for the first, under 0.015 µM for the second.

`COc1cc(-c2ccc3nc(-c4cccnc4N)n(-c4ccc(CN5CCC(Nc6ccnc(C#N)n6)CC5)cc4)c3n2)ccn1` [Example 511, 4-((1-(4-(2-(2-Aminopyridin-3-yl)-5-(2-methoxypyridin-4-yl)-3H-imidazo[4,5-b]pyridin-3-yl)benzyl)piperidin-4-yl)amino)pyrimidine-2-carbonitrile] and `N#Cc1cncc(-c2ccc3nc(-c4cccnc4N)n(-c4ccc(CN5CCC(Nc6ccnc(C#N)n6)CC5)cc4)c3n2)c1` [Example 430, 4-((1-(4-(2-(2-Aminopyridin-3-yl)-5-(5-cyanopyridin-3-yl)-3H-imidazo[4,5-b]pyridin-3-yl)benzyl)piperidin-4-yl)amino)pyrimidine-2-carbonitrile] cannot be ordered by IC50: under 0.015 µM for the first, under 0.015 µM for the second.

`N#Cc1nccc(NC2CCN(Cc3ccc(-n4c(-c5cccnc5N)nc5ccc(C(F)(F)F)nc54)cc3)CC2)n1` [Example 410, 4-((1-(4-(2-(2-Aminopyridin-3-yl)-5-(trifluoromethyl)-3H-imidazo[4,5-b]pyridin-3-yl)benzyl)piperidin-4-yl)amino)pyrimidine-2-carbonitrile] and `CNC(=O)c1ccc2nc(-c3cccnc3N)n(-c3ccc(CN4CCC(Nc5ccnc(C#N)n5)CC4)cc3)c2n1` [Example 398, 2-(2-Aminopyridin-3-yl)-3-(4-((4-((2-cyanopyrimidin-4-yl)amino)piperidin-1-yl)methyl)phenyl)-N-methyl-3H-imidazo[4,5-h]pyridine-5-carboxamide] cannot be ordered by IC50: under 0.015 µM for the first, under 0.015 µM for the second.

First: Cc1ncn(-c2ccc3nc(-c4cccnc4N)n(-c4ccc(CN5CCC(Nc6ccnc(C#N)n6)CC5)cc4)c3n2)n1 [Example 589, 4-((1-(4-(2-(2-aminopyridin-3-yl)-5-(3-methyl-1H-1,2,4-triazol-1-yl)-3H-imidazo[4,5-b]pyridin-3-yl)benzyl)piperidin-4-yl)amino)pyrimidine-2-carbonitrile]
Second: Cc1c(-c2ccc3nc(-c4cccnc4N)n(-c4ccc(CN5CCC(Nc6ccnc(C#N)n6)CC5)cc4)c3n2)cnn1C [Example 484, 4-((1-(4-(2-(2-Aminopyridin-3-yl)-5-(1,5-dimethyl-1H-pyrazol-4-yl)-3H-imidazo[4,5-b]pyridin-3-yl)benzyl)piperidin-4-yl)amino)pyrimidine-2-carbonitrile]
The IC50 of the first is higher: 0.015 to 0.06 µM for the first, under 0.015 µM for the second.

`N#Cc1nccc(NC2CCN(Cc3ccc(-n4c(-c5cccnc5N)nc5ccc(C6=CCCC6)nc54)cc3)CC2)n1` [Example 453, 4-((1-(4-(2-(2-aminopyridin-3-yl)-5-(cyclopent-1-en-1-yl)-3H-imidazo[4,5-b]pyridin-3-yl)benzyl)piperidin-4-yl)amino)pyrimidine-2-carbonitrile] and `[2H]C([2H])(F)Oc1ccc(-c2ccc3nc(-c4cccnc4N)n(-c4ccc(CN5CCC(Nc6ccnc(C#N)n6)CC5)cc4)c3n2)cn1` [Example 623, 4-((1-(4-(2-(2-Aminopyridin-3-yl)-5-(6-(fluoromethoxy-d2)pyridin-3-yl)-3H-imidazo[4,5-b]pyridin-3-yl)benzyl)piperidin-4-yl)amino)pyrimidine-2-carbonitrile] cannot be ordered by IC50: under 0.015 µM for the first, under 0.015 µM for the second.

Compared with `N#Cc1cc(N2CCN(Cc3ccc(-n4c(-c5cccnc5N)nc5ccc(-c6cccc(Cl)c6)nc54)cc3)CC2)ncn1` [Example 374, 6-(4-(4-(2-(2-Aminopyridin-3-yl)-5-(3-chlorophenyl)-3H-imidazo[4,5-b]pyridin-3-yl)benzyl)piperazin-1-yl)pyrimidine-4-carbonitrile], `N#Cc1cccc(-c2ccc3nc(-c4cccnc4N)n(-c4ccc(CN5CCN(c6ccnc(C#N)n6)CC5)cc4)c3n2)c1` [Example 331, 4-(4-(4-(2-(2-Aminopyridin-3-yl)-5-(3-cyanophenyl)-3H-imidazo[4,5-b]pyridin-3-yl)benzyl)piperazin-1-yl)pyrimidine-2-carbonitrile] is lower in IC50: 0.015 to 0.06 µM for the first, under 0.015 µM for the second. The second is the more potent here.

First: N#Cc1nccc(NC2CCN(Cc3ccc(-n4c(-c5nccnc5N)nc5ccc(-c6cnn(C7CC7)n6)nc54)cc3)CC2)n1 [Example 631, 4-((1-(4-(2-(3-Aminopyrazin-2-yl)-5-(2-cyclopropyl-2H-1,2,3-triazol-4-yl)-3H-imidazo[4,5-b]pyridin-3-yl)benzyl)piperidin-4-yl)amino)pyrimidine-2-carbonitrile]
Second: N#Cc1ncnc(NC2CCN(Cc3ccc(-n4c(-c5cccnc5N)nc5ccc(-c6ccc(Cl)cc6)nc54)cc3)CC2)n1 [Example 382, 4-((1-(4-(2-(2-Aminopyridin-3-yl)-5-(4-chlorophenyl)-3H-imidazo[4,5-b]pyridin-3-yl)benzyl)piperidin-4-yl)amino)-1,3,5-triazine-2-carbonitrile]
The IC50 of the first is lower: under 0.015 µM for the first, 0.015 to 0.06 µM for the second.

same assay, conditions: competitive tracer displacement in living cells, read-out: AKT1 E17K IC50

Compared with `C[C@@H]1CN(Cc2ccc(-n3c(-c4cccnc4N)nc4ccc(-c5ccccc5)nc43)cc2)CCN1c1ccnc(C#N)n1` [Example 225, (R)-4-(4-(4-(2-(2-aminopyridin-3-yl)-5-phenyl-3H-imidazo[4,5-b]pyridin-3-yl)benzyl)-2-methylpiperazin-1-yl)pyrimidine-2-carbonitrile], `[2H]C([2H])([2H])N(C(=O)c1ccnc(C#N)n1)C1CCN(Cc2ccc(-n3c(-c4cccnc4N)nc4ccc(-c5ccccc5)nc43)cc2)CC1` [Example 234, N-(1-(4-(2-(2-aminopyridin-3-yl)-5-phenyl-3H-imidazo[4,5-b]pyridin-3-yl)benzyl)piperidin-4-yl)-2-cyano-N-(methyl-d3)pyrimidine-4-carboxamide] is lower in IC50: 0.06 to 0.6 µM for the first, under 0.015 µM for the second.

First: CC(=O)Nc1cccc(-c2ccc3nc(-c4cccnc4N)n(-c4ccc(CN5CCN(c6ccnc(C#N)n6)CC5)cc4)c3n2)c1 [Example 44, N-(3-(2-(2-Aminopyridin-3-yl)-3-(4-((4-(2-cyanopyrimidin-4-yl)piperazin-1-yl)methyl)phenyl)-3H-imidazo[4,5-b]pyridin-5-yl)phenyl)acetamide]
Second: CC(=O)Nc1cccc(-c2ccc3nc(-c4cccnc4N)n(-c4ccc(CN5CCN(c6cnnc(C#N)c6)CC5)cc4)c3n2)c1 [Example 43, N-(3-(2-(2-Aminopyridin-3-yl)-3-(4-((4-(6-cyanopyridazin-4-yl)piperazin-1-yl)methyl)phenyl)-3H-imidazo[4,5-b]pyridin-5-yl)phenyl)acetamide]
The IC50 of the first is lower: under 0.015 µM for the first, 0.06 to 0.6 µM for the second.

`N#Cc1ccnc(N2C[C@H]3C[C@@H]2CN3Cc2ccc(-n3c(-c4cccnc4N)nc4ccc(-c5ccccc5)nc43)cc2)n1` [Example 217, 2-((1R,4R)-5-(4-(2-(2-Aminopyridin-3-yl)-5-phenyl-3H-imidazo[4,5-b]pyridin-3-yl)benzyl)-2,5-diazabicyclo[2.2.1]heptan-2-yl)pyrimidine-4-carbonitrile] and `N#Cc1ncnc(N2CC3CCC2CN3Cc2ccc(-n3c(-c4cccnc4N)nc4ccc(-c5ccccc5)nc43)cc2)n1` (stereo not drawn) [Example 257, 4-(5-(4-(2-(2-Aminopyridin-3-yl)-5-phenyl-3H-imidazo[4,5-b]pyridin-3-yl)benzyl)-2,5-diazabicyclo[2.2.2]octan-2-yl)-1,3,5-triazine-2-carbonitrile] fall in the same range of IC50: 0.015 to 0.06 µM for the first, 0.015 to 0.06 µM for the second.

`N#Cc1cc(NC2CCN(Cc3ccc(-n4c(-c5cccnc5N)nc5cccnc54)cc3)CC2)ncn1` [Example 64, 6-((1-(4-(2-(2-aminopyridin-3-yl)-3H-imidazo[4,5-b]pyridin-3-yl)benzyl)piperidin-4-yl)amino)pyrimidine-4-carbonitrile] and `N#Cc1ccc(C(=O)N2CCN(Cc3ccc(-n4c(-c5cccnc5N)nc5cccnc54)cc3)CC2)nc1` [Example 80, 6-(4-(4-(2-(2-Aminopyridin-3-yl)-3H-imidazo[4,5-b]pyridin-3-yl)benzyl)piperazine-1-carbonyl)nicotinonitrile] fall in the same range of IC50: 0.6 to 10 µM for the first, 0.6 to 10 µM for the second.

`N#Cc1ncc(C(=O)NCc2ccc(-n3c(-c4cccnc4N)nc4cccnc43)cc2)cn1` [Example 119, N-(4-(2-(2-Aminopyridin-3-yl)-3H-imidazo[4,5-b]pyridin-3-yl)benzyl)-2-cyanopyrimidine-5-carboxamide] and `N#Cc1nccc(NCc2ccc(-n3c(-c4cccnc4N)nc4cccnc43)cc2)n1` [Example 47, 4-((4-(2-(2-Aminopyridin-3-yl)-3H-imidazo[4,5-b]pyridin-3-yl)benzyl)amino)pyrimidine-2-carbonitrile] fall in the same range of IC50: 0.6 to 10 µM for the first, 0.6 to 10 µM for the second.

First: C[C@@H]1CN(Cc2ccc(-n3c(-c4cccnc4N)nc4ccc(-c5ccccc5)nc43)cc2)C[C@@H](C)N1c1cc(C#N)ncn1 [Example 197, 6-((2R,6R)-4-(4-(2-(2-aminopyridin-3-yl)-5-phenyl-3H-imidazo[4,5-b]pyridin-3-yl)benzyl)-2,6-dimethylpiperazin-1-yl)pyrimidine-4-carbonitrile]
Second: N#Cc1ccc(C(=O)N2CCN(Cc3ccc(-n4c(-c5cccnc5N)nc5ccc(-c6ccccc6)nc54)cc3)CC2)cn1 [Example 166, 5-(4-(4-(2-(2-Aminopyridin-3-yl)-5-phenyl-3H-imidazo[4,5-b]pyridin-3-yl)benzyl)piperazine-1-carbonyl)picolinonitrile]
The IC50 of the first is higher: 0.06 to 0.6 µM for the first, 0.015 to 0.06 µM for the second.

`N#Cc1cncc(NCc2ccc(-n3c(-c4cccnc4N)nc4cccnc43)cc2)n1` [Example 133, 6-((4-(2-(2-Aminopyridin-3-yl)-3H-imidazo[4,5-b]pyridin-3-yl)benzyl)amino)pyrazine-2-carbonitrile] showed an IC50 of 0.6 to 10 µM.
